According to PubChem BioAssay (NCI):
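Test compounds were applied to cells in 96-well plates for 48 hours at 5 doses. GI50 marks 50% less growth. TGI: total growth inhibition.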

Tests used:
Test in all cases: growth of human tumour cells (NCI), 48 h
[1] = test system: DU-145 prostate
[2] = test system: HL-60(TB) leukemia
[3] = test system: MCF7 breast
[4] = test system: HOP-62 NSCLC
[5] = test system: OVCAR-8 ovarian
[6] = test system: RXF 393 renal
[7] = test system: MOLT-4 leukemia
[8] = test system: MALME-3M melanoma
[9] = test system: NCI-H460 lung
[10] = test system: BT-549 breast
[11] = test system: MDA-MB-435
[12] = test system: LOX IMVI melanoma
[13] = test system: OVCAR-4 ovarian
[14] = test system: HT29 colon
[15] = test system: NCI-H226 lung
[16] = test system: IGROV1 ovarian
[17] = test system: HCT-15 colon
[18] = test system: COLO 205 colon
[19] = test system: RPMI-8226 leukemia
[20] = test system: SF-295 CNS
[21] = test system: HCC-2998 colon
[22] = test system: SF-268 CNS
[23] = test system: SR leukemia
[24] = test system: PC-3 prostate
[25] = test system: SW-620 colon
[26] = test system: SK-MEL-5 melanoma
[27] = test system: SK-OV-3 ovarian

SMILES: C[C@H]1[C@@H](CC(=O)N[C@@H](Cc2coc3ccccc23)B(O)O)O[C@@H]2OC3(C)CC[C@H]4[C@H](C)CC[C@@H]1[C@@]24OO3
- GI50 [1]: 5.47 µM
- TGI [1]: 62.1 µM
- GI50 [2]: 0.177 µM
- TGI [2]: 2.04 µM
- GI50 [3]: 0.969 µM
- TGI [3]: 15.6 µM
- GI50 [4]: 2.26 µM
- TGI [4]: 8.31 µM
- GI50 [5]: 2.08 µM
- TGI [5]: 11.7 µM
- GI50 [6]: 0.259 µM
- TGI [6]: 1.12 µM
- GI50 [7]: 0.267 µM
- TGI [7]: 3.54 µM
- GI50 [8]: 1.07 µM
- TGI [8]: 4.58 µM
- GI50 [9]: 2.46 µM
- TGI [9]: 12 µM
- GI50 [10]: 0.556 µM
- TGI [10]: 1.8 µM
- GI50 [11]: 0.287 µM
- TGI [11]: 1.51 µM
- GI50 [12]: 0.892 µM
- TGI [12]: 1.99 µM
- GI50 [13]: 2.6 µM
- TGI [13]: 68.5 µM
- GI50 [14]: 1.55 µM
- TGI [14]: 4.86 µM
- GI50 [15]: 0.876 µM
- TGI [15]: 2.14 µM
- GI50 [16]: 2.26 µM
- TGI [16]: 9.3 µM
- GI50 [17]: 0.363 µM
- TGI [17]: 4.29 µM
- GI50 [18]: 1.89 µM
- TGI [18]: 8.9 µM
- GI50 [19]: 0.267 µM
- TGI [19]: 1.42 µM
- GI50 [20]: 1.98 µM
- TGI [20]: 7.69 µM
- GI50 [21]: 1.23 µM
- TGI [21]: 2.3 µM
- GI50 [22]: 3.04 µM
- TGI [22]: > 71 µM
- GI50 [23]: 0.143 µM
- TGI [23]: 0.677 µM
- GI50 [24]: 1.19 µM
- TGI [24]: 18.8 µM
- GI50 [25]: 0.362 µM
- TGI [25]: 10.2 µM
- GI50 [26]: 1.13 µM
- TGI [26]: 2.22 µM
- GI50 [27]: 3.55 µM
- TGI [27]: 13.4 µM
